Results on 13 compounds are retold here after patent US20110294799A1, “Organic Compounds” (NOVARTIS AG, priority 2007, published 2011).

In experiment [1] the target is T1, GABA-A alpha1 receptor (alpha 1 subunit together with a beta and a gamma subunit) (Homo sapiens, UniProt P14867+P18507).
T1 construct: expressed in transfected cells
T1 sequence (P14867 28-456): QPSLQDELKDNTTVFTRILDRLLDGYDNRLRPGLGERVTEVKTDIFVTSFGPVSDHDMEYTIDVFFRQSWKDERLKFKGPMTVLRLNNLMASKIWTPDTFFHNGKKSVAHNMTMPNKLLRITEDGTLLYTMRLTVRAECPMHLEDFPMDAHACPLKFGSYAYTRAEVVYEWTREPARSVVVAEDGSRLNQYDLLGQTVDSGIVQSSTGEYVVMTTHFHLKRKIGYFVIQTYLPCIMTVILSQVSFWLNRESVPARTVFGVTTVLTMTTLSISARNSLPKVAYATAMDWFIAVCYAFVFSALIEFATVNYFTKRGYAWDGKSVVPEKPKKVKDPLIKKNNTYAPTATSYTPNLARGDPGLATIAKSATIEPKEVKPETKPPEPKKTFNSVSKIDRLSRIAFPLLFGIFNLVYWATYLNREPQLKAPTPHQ
T1 sequence (P47870 25-512 partner limits assumed): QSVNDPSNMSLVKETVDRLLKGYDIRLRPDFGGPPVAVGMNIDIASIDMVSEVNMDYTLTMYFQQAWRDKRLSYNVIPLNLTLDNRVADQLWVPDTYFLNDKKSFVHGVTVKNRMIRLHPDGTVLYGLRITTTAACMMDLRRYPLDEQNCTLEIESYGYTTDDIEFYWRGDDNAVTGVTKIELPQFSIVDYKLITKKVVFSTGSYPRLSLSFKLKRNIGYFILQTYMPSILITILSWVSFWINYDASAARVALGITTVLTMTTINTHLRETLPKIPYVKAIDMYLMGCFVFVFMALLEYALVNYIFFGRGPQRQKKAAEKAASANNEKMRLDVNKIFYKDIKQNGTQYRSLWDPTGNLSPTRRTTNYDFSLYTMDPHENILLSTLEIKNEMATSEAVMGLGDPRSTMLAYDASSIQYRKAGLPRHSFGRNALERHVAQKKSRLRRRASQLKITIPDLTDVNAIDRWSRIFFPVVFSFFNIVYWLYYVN
T1 sequence (P18507 40-467 limits assumed): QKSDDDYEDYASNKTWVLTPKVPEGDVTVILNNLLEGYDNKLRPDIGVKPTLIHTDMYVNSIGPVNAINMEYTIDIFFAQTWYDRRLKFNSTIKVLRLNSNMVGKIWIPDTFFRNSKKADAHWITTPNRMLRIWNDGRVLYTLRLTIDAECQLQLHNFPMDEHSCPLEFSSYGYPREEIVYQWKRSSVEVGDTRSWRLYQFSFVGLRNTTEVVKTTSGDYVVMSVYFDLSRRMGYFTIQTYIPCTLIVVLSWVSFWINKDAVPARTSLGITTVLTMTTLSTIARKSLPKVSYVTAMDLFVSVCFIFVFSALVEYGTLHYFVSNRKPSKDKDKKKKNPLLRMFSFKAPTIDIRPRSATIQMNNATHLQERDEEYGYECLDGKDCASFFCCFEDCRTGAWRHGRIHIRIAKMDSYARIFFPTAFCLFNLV
The experiment can be described thus: GABA-A receptor modulation, voltage-sensitive dye fluorescence in transfected eukaryotic cell line (alpha1). It counts as cell-based. To be noted: compounds at 3 μM, sub-maximal concentration of GABA (EC20); for activation at 3 µM: read-out: alpha1 % mod (percentage of increase of the fluorescent signal compared to signal without the agent). The source says:
(§1) GABA-A receptor modulators show in functional assays a positive modulation of GABA-induced signals. This modulation can be determined in vitro, e.g., at recombinant GABA-A receptors expressed in a mammalian cell line, e.g. by measurement of GABA-A receptor induced changes of the trans-membrane voltage, when using a voltage-sensitive dye and a fluorescence detection system (Adkins, C. E., Pillai, G. V., Kerby, J., Bonnert, T. P., Haldon, C., Mckernan, R. M., Gonzalez, J. E., Oades, K., Whiting, P. J. & Simpson, P. B. [2001]. alpha4beta3delta GABA-A receptors characterized by fluorescence resonance energy transfer-derived measurements of membrane potential. J. Biol. Chem., 276, 38934-38939). In this assay, a modulator compound is pre-applied at different concentrations ranging from 0.1 nM to 10 μM to cells expressing GABA-A receptors and loaded with the voltage-sensitive dye, before, or at the same time as, a sub-maximal concentration of GABA (in the range of from 0.1 to 10 μM) is applied to the cells. The fluorescent signal is correlated with the degree of GABA-A receptor channel opening. This allows the quantification of effects induced by the modulator in a functional manner. By expression of different GABA-A receptor subunit combinations, the differential efficacy of a modulator at different GABA-A receptor variants can be tested. Other functional assays include the electrophysiological recording of Xenopus oocytes or mammalian cells expressing respective receptor variants. In addition, ion flux detectors can be used to functionally study GABA-A receptors in heterologous expression systems. The affinity of a compound to the GABA-A receptor can be measured in radioligand binding experiments using reference ligands containing a radioactive element, e.g., tritiated flumazenil, and intact cells or membrane preparations of cells expressing GABA-A receptors.
(§2) Activity and selectivity of a GABA-A receptor modulator according to the invention can, e.g., be determined in vitro as follows: A transfected eukaryotic cell line expressing the alpha1, alpha2 or alpha3 subunit of the GABA-A receptor together with a beta and a gamma subunit of the GABA-A receptor is incubated with a voltage-sensitive dye, and the effects of an agonist (typically GABA) or modulator addition are recorded in a fluorimetric plate reader. The opening of the GABA-A receptor channel and the subsequent flux of anions through it changes the trans-membrane voltage of the transfected cells, leading to a change in the fluorescent signal of the voltage-sensitive dye. In the presence of the agent of the invention, a sub-maximal concentration of GABA (e.g. an EC20 or an EC50) added to transfected cells expressing the alpha1, alpha2 or alpha3 subunit of the GABA-A receptor will elicit an at least 50%, preferably an at least 80%, ideally an at least 100%, increase, of the fluorescent signal, compared to the fluorescent signal obtained without the agent of the invention. In this assay, agents of the invention modulate the GABA-induced response at concentration from about 0.1 to about 10′000 nM.

The target of experiment [2] is T2, GABA-A alpha2 receptor (alpha 2 subunit together with a beta and a gamma subunit) (Homo sapiens, UniProt P18507+P47869).
T2 construct: expressed in transfected cells
T2 sequence (P47869 29-451): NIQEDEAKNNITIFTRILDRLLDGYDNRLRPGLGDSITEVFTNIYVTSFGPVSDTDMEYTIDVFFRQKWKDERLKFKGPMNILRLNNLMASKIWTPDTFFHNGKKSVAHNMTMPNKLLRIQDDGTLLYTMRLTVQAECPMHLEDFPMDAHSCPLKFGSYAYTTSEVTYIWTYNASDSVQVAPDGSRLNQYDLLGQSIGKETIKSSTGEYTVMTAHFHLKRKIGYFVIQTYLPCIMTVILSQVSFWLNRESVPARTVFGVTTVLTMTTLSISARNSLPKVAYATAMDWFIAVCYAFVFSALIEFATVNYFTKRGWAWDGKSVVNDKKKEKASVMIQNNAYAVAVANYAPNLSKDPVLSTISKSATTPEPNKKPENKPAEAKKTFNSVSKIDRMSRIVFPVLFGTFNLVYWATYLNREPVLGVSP
T2 sequence (P47870 25-512 partner limits assumed): T1 sequence (P47870 25-512 partner limits assumed)
T2 sequence (P18507 40-467 limits assumed): T1 sequence (P18507 40-467 limits assumed)
The experiment can be described thus: GABA-A receptor modulation, voltage-sensitive dye fluorescence in transfected eukaryotic cell line (alpha2). It counts as cell-based. To be noted: compounds at 3 μM, sub-maximal concentration of GABA (EC20); for activation at 3 µM: read-out: alpha2 % mod (percentage of increase of the fluorescent signal compared to signal without the agent).
Source text: as §1, §2

Molecules are shown by their SMILES.

As to `Fc1ccc(-n2nc3c(cnc4ccccc43)c2OCc2ccccc2C(F)(F)F)cc1` [Example 50, 2-(4-fluorophenyl)-3-{[2-(trifluoromethyl)benzyl]oxy}-2H-pyrazolo[4,3-c]quinoline], the activation at 3 µM in experiment [1] was 47%; in experiment [2] it was 236%.

In the case of `Clc1ccccc1COc1c2cnc3ccccc3c2nn1-c1ccc2c(c1)OCO2` [Example 59, 2-(1,3-benzodioxo1-5-y1)-3-[(2-chlorobenzypoxy]-2H-pyrazolo[4,3-c]quinoline], the “alpha1 % mod (percentage of increase of the fluorescent signal compared to signal without the agent)” value in experiment [1] is recorded as −17 % mod. Also, the “alpha2 % mod (percentage of increase of the fluorescent signal compared to signal without the agent)” value in experiment [2] was determined as 66 % mod.

For the compound `COc1ccc(-n2nc3c(cnc4ccccc43)c2OCc2ccncc2)cc1` [Example 60, 2-(4-methoxyphenyl)-3-(pyridin-4-ylmethoxy)-2H-pyrazolo[4,3-c]quinoline], the activation at 3 µM stood at 64% in experiment [1] and 177% in experiment [2].

Regarding `COc1ccc(-n2nc3c(cnc4ccccc43)c2OCc2ccccc2Cl)cc1` [Example 61, 3-[(2-chlorobenzyl)oxy]-2-(4-methoxyphenyl)-2H-pyrazolo[4,3-c]quinoline], the activation at 3 µM in experiment [1] worked out at 52%; in experiment [2], 145%.

With `COc1ccc(-n2nc3c(cnc4ccccc43)c2OCc2ccc(Cl)nc2)cc1` [Example 62, 3-[(6-chloropyridin-3-yl)methoxy]-2-(4-methoxypheny1)-2H-pyrazolo[4,3-c]quinoline], the “alpha1 % mod (percentage of increase of the fluorescent signal compared to signal without the agent)” value in experiment [1] is on record as 55 % mod. Also, in experiment [2], the “alpha2 % mod (percentage of increase of the fluorescent signal compared to signal without the agent)” value is 141 % mod.

With `Fc1ccc(-n2nc3c(cnc4ccccc43)c2OCc2ccccc2Cl)cc1` [Example 63, 3-[(2-chlorobenzyl)oxy]-2-(4-fluorophenyl)-2H-pyrazolo[4,3-c]quinoline], the activation at 3 µM was found to be 9% in experiment [1] and 60% in experiment [2].

For `COc1ccc(-n2nc3c(cnc4c(F)c(F)c(F)cc43)c2SCc2ccccc2)cc1` [Example 70, 3-(benzylsulfanyl)-6,7,8-trifluoro-2-(4-methoxyphenyl)-2H-pyrazolo[4,3-c]quinoline], the activation at 3 µM in experiment [1] was found to be 188%; in experiment [2] it was 349%.

As for `CC(C)(C)n1nc2c(cnc3ccccc32)c1OCc1ccccc1Br` [Example 81, 3-[(2-bromobenzyl)oxy]-2-tert-butyl-2H-pyrazolo[4,3-c]quinoline], the activation at 3 µM in experiment [1] was determined as 109%; in experiment [2], 205%.

For `COc1ccc(-n2nc3c(cnc4ccccc43)c2OCc2ccc(Cl)cc2)cc1` [Example 89, 3-(4-Chloro-benzyloxy)-2-(4-methoxy-phenyl)-2H-pyrazolo[4,3-c]quinoline], the activation at 3 µM stood at 23% in experiment [1] and 69% in experiment [2].

Consider `Clc1ccc(-n2nc3c(cnc4ccccc43)c2OCC2CC2)cc1` [Example 90, 2-(4-Chloro-phenyl)-3-cyclopropylmethoxy-2H-pyrazolo[4,3-c]quinoline], for which the activation at 3 µM in experiment [1] is 60%; in experiment [2], 164%.

`Clc1ccc(-n2nc3c(cnc4ccccc43)c2OCC2CCCC2)cc1` [Example 91, 2-(4-Chloro-phenyl)-3-cyclopentylmethoxy-2H-pyrazolo[4,3-c]quinoline]: the activation at 3 µM in experiment [1] turned out to be 55%; in experiment [2], 84%.

In the case of `Clc1ccc(-n2nc3c(cnc4ccccc43)c2OC2CCCC2)cc1` [Example 92, 2-(4-Chloro-phenyl)-3-cyclopentyloxy-2H-pyrazolo[4,3-c]quinoline], the results for the activation at 3 µM in experiment [1] and in experiment [2] were 27% and 57%, respectively.

With `Clc1ccc(-n2nc3c(cnc4ccccc43)c2OCCN2CCOCC2)cc1` [Example 93, 2-(4-Chloro-phenyl)-3-(2-morpholin-4-yl-ethoxy)-2H-pyrazolo[4,3-c]quinoline], the figures for the activation at 3 µM in experiment [1] and in experiment [2] were 17% and 81%, respectively.
